No end group written: not given here.
What was measured:
Rhizoctonia solani = settings: RPMI 1640 pH 7.0; 28 °C, 48 h; start 2.5 x 10 3; 256-0.5 µM; mean ± SD of 3 biological repetitions (SD 0 not displayed); N/A = no antimicrobial activity observed
Method: (§1) The susceptibility test of microorganisms was performed to evaluate the inhibitory activity of the IAPs. Protocols M7-A10[50], M27-A3[51] and M38-A2[52] from Clinical & Laboratory Standards Institute (CLSI) were used for bacteria, yeasts and filamentous fungi tests, respectively. Briefly, different concentration of IAPs (256-0.5 µM) were tested against 16 microorganisms, in a final volume of 100 µL. Media conditions, final cell concentration and incubation conditions are presented in Supplementary Material 07, Table S5. Three biological repetitions, with 2 technical replicates each, were performed for each test, on polystyrene flat-bottom 96 wells microplates. The minimum inhibitory concentration (MIC) was defined as the concentration that no cells/hyphae were detected when visualized by optical microscopy.
(§2) Supplementary Material 07, Table S5
(§3) Table S5. Microorganisms and growth conditions.

[1] = system: Fusarium oxysporum f.sp. vasinfectum; settings: RPMI 1640 pH 7.0; 28 °C, 72 h; start 2.5 x 10 3; 256-0.5 µM; mean ± SD of 3 biological repetitions (SD 0 not displayed); N/A = no antimicrobial activity observed
Method: as §1, §2, §3

Fusarium solani = settings: RPMI 1640 pH 7.0; 28 °C, 48 h; start 2.5 x 10 3; 256-0.5 µM; mean ± SD of 3 biological repetitions (SD 0 not displayed); N/A = no antimicrobial activity observed
Method: as §1, §2, §3

human red blood cells = test: Cytotoxicity: hemolysis of human red blood cells; format: cell-based; settings: SC50 = IAP concentration that at least 50% of red blood cells remain intact; 128 µM–0.5 µM tested; PBS, 30 minutes, 37 °C; absorbance 540 nm
Method: The cytotoxicity of the selected IAPS was performed using human red blood cells in strict accordance with relevant guidelines and regulations (Ethical committee – UnB # 1.939.989). Different concentrations of IAPs (128 µM–0.5 µM) were incubated with a final concentration of 2.5 × 10^5 red blood cells.mL^−1. Briefly, 100 µL of red blood cells was incubated with 100 µL of different concentrations of each IAP, prepared in PBS, for 30 minutes at 37 °C, with constant shaking at 120 rpm. PBS and Triton X-100 0.1% (v/v) were used as negative and positive controls, respectively. After incubation, the solution was centrifuged at 900 × g for five minutes followed by transferring 50 µL of the supernatant to flat-bottom polystyrene 96-well micro plates containing 50 µL of PBS. Microplate reading was performed at a BioTek Multireader, using a wavelength of 540 nm. All tests were performed in 3 biological replicates, composed of 3 biological repetitions each. The obtained data was subtracted by the negative control and relative to the positive control, defined as 100% lysis.

Candida albicans = test: microbe, parasite or virus in culture; settings: ATCC 90028; RPMI 1640 pH 7.0; 37 °C, 48 h; start 2.5 x 10^3 cells; 256-0.5 µM; mean ± SD of 3 biological repetitions (SD 0 not displayed); no cells seen by optical microscopy; N/A = no antimicrobial activity observed
Method: as §1, §2, §3

Ramularia areola = test: microbe, parasite or virus in culture; settings: RPMI 1640 pH 7.0; 25 °C, 120 h; start 2.5 x 10 3; 256-0.5 µM; mean ± SD of 3 biological repetitions (SD 0 not displayed); N/A = no antimicrobial activity observed
Method: as §1, §2, §3

Cryptococcus neoformans = test: microbe, parasite or virus in culture; settings: ATCC 28957; RPMI 1640 pH 7.0; 37 °C, 72 h; start 2.5 x 10^3 cells; 256-0.5 µM; mean ± SD of 3 biological repetitions (SD 0 not displayed); N/A = no antimicrobial activity observed
Method: as §1, §2, §3

Bacillus subtilis = test: microbe, parasite or virus in culture; settings: ATCC 23857; Mueller-Hinton; 37 °C, 24 h; start 5.0 x 10^5 cells; 256-0.5 µM; mean ± SD of 3 biological repetitions (SD 0 not displayed); N/A = no antimicrobial activity observed
Method: as §1, §2, §3

Escherichia coli = test: microbe, parasite or virus in culture; settings: ATCC 25922; Mueller-Hinton; 37 °C, 24 h; start 5.0 x 10^5 cells; 256-0.5 µM; mean ± SD of 3 biological repetitions (SD 0 not displayed); N/A = no antimicrobial activity observed
Method: as §1, §2, §3

Bacillus cereus = test: microbe, parasite or virus in culture; settings: ATCC 14579; Mueller-Hinton; 37 °C, 24 h; start 5.0 x 10^5 cells; 256-0.5 µM; mean ± SD of 3 biological repetitions (SD 0 not displayed); N/A = no antimicrobial activity observed
Method: as §1, §2, §3

Staphylococcus aureus = test: microbe, parasite or virus in culture; settings: ATCC 25923; Mueller-Hinton; 37 °C, 24 h; start 5.0 x 10^5 cells; 256-0.5 µM; mean ± SD of 3 biological repetitions (SD 0 not displayed); N/A = no antimicrobial activity observed
Method: as §1, §2, §3

Fusarium oxysporum = test: microbe, parasite or virus in culture; settings: RPMI 1640 pH 7.0; 28 °C, 48 h; start 2.5 x 10 3; 256-0.5 µM; mean ± SD of 3 biological repetitions (SD 0 not displayed); N/A = no antimicrobial activity observed
Method: as §1, §2, §3

[2] = system: Pseudomonas syringae pv. tabaci; test: microbe, parasite or virus in culture; settings: Mueller-Hinton; 28 °C, 24 h; start 5.0 x 10^5 cells; 256-0.5 µM; mean ± SD of 3 biological repetitions (SD 0 not displayed); N/A = no antimicrobial activity observed
Method: as §1, §2, §3

Trichoderma asperellum = test: microbe, parasite or virus in culture; settings: RPMI 1640 pH 7.0; 28 °C, 48 h; start 2.5 x 10 3; 256-0.5 µM; mean ± SD of 3 biological repetitions (SD 0 not displayed); N/A = no antimicrobial activity observed
Method: as §1, §2, §3

Erwinia carotovora = test: microbe, parasite or virus in culture; settings: Mueller-Hinton; 28 °C, 24 h; start 5.0 x 10^5 cells; 256-0.5 µM; mean ± SD of 3 biological repetitions (SD 0 not displayed); N/A = no antimicrobial activity observed
Method: as §1, §2, §3

Xanthomonas campestris = test: microbe, parasite or virus in culture; settings: pv. citri; Mueller-Hinton; 28 °C, 24 h; start 5.0 x 10^5 cells; 256-0.5 µM; mean ± SD of 3 biological repetitions (SD 0 not displayed); N/A = no antimicrobial activity observed
Method: as §1, §2, §3

FFGHIWHGARTLFRDVFA-NH2 [Cs02]
Minimum inhibitory concentration, Rhizoctonia solani (Rhizoctonia solani): 32.0 µM | Minimum inhibitory concentration, Fusarium oxysporum f.sp. vasinfectum [1]: 13.33 ± 4.61 µM | Minimum inhibitory concentration, Fusarium solani (Fusarium solani): 8.0 µM | Hemolytic activity of human red blood cells (%) SC50 (human red blood cells): >128 µM | Minimum inhibitory concentration, Candida albicans (Candida albicans): 32.0 µM | Minimum inhibitory concentration, Ramularia areola (Ramularia areola): 16.0 µM | Minimum inhibitory concentration, Cryptococcus neoformans (Cryptococcus neoformans): 32.0 µM | Minimum inhibitory concentration, Bacillus subtilis (Bacillus subtilis): 3.33 ± 1.15 µM | Minimum inhibitory concentration, Escherichia coli (Escherichia coli): 8.0 µM | Minimum inhibitory concentration, Bacillus cereus (Bacillus cereus): 64.0 µM | Minimum inhibitory concentration, Staphylococcus aureus (Staphylococcus aureus): 8.0 µM | Minimum inhibitory concentration, Fusarium oxysporum (Fusarium oxysporum): 16.0 µM | Minimum inhibitory concentration, Pseudomonas syringae pv. tabaci [2]: 4.0 µM | Minimum inhibitory concentration, Trichoderma asperellum (Trichoderma asperellum): 8.0 µM | Minimum inhibitory concentration, Erwinia carotovora (Erwinia carotovora): 32.0 µM | Minimum inhibitory concentration, Xanthomonas campestris (Xanthomonas campestris): 32.0 µM

Source: paper PMC5643462, “Encrypted Antimicrobial Peptides from Plant Proteins” (Scientific Reports, 2017)
